Results: article PMC3904085 (Frontiers in Neuroscience, 2014)
Like-named read-outs stand apart in the source and are kept apart here.

Experiments:
[1] = tested on: mice lacking OX1 receptors; test: DRL 36-s schedule of reinforcement in OX1 KO mice; format: in vivo, mouse; conditions: for Lever Presses Mean / Reinforcers Mean: OX1 KO mice DRL-36-s, raw data
Excerpt: (§1) Rats were acclimated to housing conditions for 4 days, followed by sham dosing once daily for 3 days, prior to the experiment. For DRL experiments, male Sprague–Dawley rats weighing between 300 and 350 g at the beginning of the behavioral experiments (Holtzman, Madison, WI) were housed in pairs. For mouse DRL studies, male C57Bl/6 mice (Taconic Farms, Hudson, NY) or mice lacking either OX1 or OX2 receptors, around 8 weeks of age, were obtained from private breeding colonies at Taconic Farms (Hudson, NY). OX1 and OX2 receptor knockout mice were generated using in vitro fertilization of embryos in C57Bl/6 female mice with sperm harvested from male mice obtained from the University of Texas Southwestern Medical Center (Dallas, TX), and backcrossed for at least 10 generations. Mice and rats were housed in separate colony rooms, which were maintained at 22°C and 60% relative humidity. For rat DRL experiments, water was available for a 20-min period following the daily behavioral session. Based on recommendations from the animal care and use committee, the mouse DRL assay was developed using food deprivation rather than water deprivation. […] All experiments were conducted during the light cycle and in compliance with the Guide for the Care and Use of Laboratory Animals under protocols approved by a local animal care and use committee.
(§2) The levers in these chambers were mounted on one wall with an adjacent food magazine next to the lever in the middle of the wall. A reinforced response caused a clicker apparatus to activate and the pellet feeder to deposit one 45-mg sucrose pellet (BioServ, Frenchtown, NJ) into the food magazine. The house light, which was mounted on the ceiling, was turned on when the session began, remained on throughout the entire session, and was turned off at the end of the session. Each experimental chamber was enclosed in a melamine sound-attenuating cubicle and equipped with a white noise generator to provide masking noise.
(§3) Each mouse was initially trained under a variable time 60-s operant schedule for 5 days, followed by fixed ratio-1 ratio schedule for 5 days. After the mice had acquired lever-pressing behavior, they were trained during daily DRL 6-s sessions for ~1 week, then mice progressed through weekly ascending DRL requirements (12, 18, 24, 30 s) before moving to DRL 36-s sessions. […] Experimental sessions lasted for 45 min and were conducted 5 days/week during light hours.
(§4) Drugs were administered to the animals once or twice weekly with at least 1 week between subsequent drugs to minimize possible carryover effects. Drug treatments were administered on Tuesdays and Fridays. No treatments were administered on other test days. Wednesdays were control days. “Control” behavior was calculated as the pooled mean lever presses or reinforcers received during Wednesday sessions across all Wednesdays for the duration of each study. Performance was normalized to percent of control by dividing total responses (or reinforcers) for each drug or vehicle treatment by the mean number of responses (reinforcers) in the respective pooled control condition, multiplied by 100.
(§5) The data analyses were conducted on the raw response and reinforcement data. All behavioral data are expressed as the mean ± s.e.m. normalized to the control condition.

[2] = tested on: C57Bl/6 mice; test: DRL 36-s schedule of reinforcement in wild-type mice; format: in vivo, mouse; conditions: for Lever Presses Mean / Reinforcers Mean: WT mice DRL-36-s, raw data
Excerpt: as §2, §3, §4, §5

[3] = molecular target: T1, human OX2 receptors (Homo sapiens, UniProt O43614); test: biochemical
T1 sequence (O43614 1-444): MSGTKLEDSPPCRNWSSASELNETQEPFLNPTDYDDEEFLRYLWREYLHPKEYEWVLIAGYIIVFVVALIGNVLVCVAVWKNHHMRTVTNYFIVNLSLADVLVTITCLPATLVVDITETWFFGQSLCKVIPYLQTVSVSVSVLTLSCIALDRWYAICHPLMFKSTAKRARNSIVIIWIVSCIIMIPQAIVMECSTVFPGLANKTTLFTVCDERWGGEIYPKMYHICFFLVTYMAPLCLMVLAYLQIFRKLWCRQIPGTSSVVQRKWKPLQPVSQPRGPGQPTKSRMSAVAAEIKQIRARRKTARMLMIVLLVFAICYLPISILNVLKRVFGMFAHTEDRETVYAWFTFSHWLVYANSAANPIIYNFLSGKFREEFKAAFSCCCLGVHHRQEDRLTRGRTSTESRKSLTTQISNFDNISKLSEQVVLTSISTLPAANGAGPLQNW
Method: Briefly, the membranes were isolated by homogenizing cell pellet in 30 ml (w/v) 50 mM Tris buffer (pH 7.4) containing Roche Complete EDTA free protease tablets. […] All binding studies were conducted at a final volume of 200 μl. […] Then 300 μl of this solution was placed in column B on a Nunc polypropylene 96-well plate (Thermo Fisher Scientific, Inc., Rochester, NY). Serial dilutions were then made using a Biomek 2000 (Beckman Coulter, Inc., Fullerton, CA) from a starting concentration of 40 μM. […] All binding was terminated by rapid filtration using a TOMTEC 96-well cell harvester (Hamden, CT) through GF/A filters that had been presoaked with 0.3% polyethyleneimine. The filters were washed with 5.0 ml ice-cold 50 mM Tris buffer (pH 7.4) and air-dried overnight. […] Protein concentrations were measured using Coomassie Protein Plus Assay Reagent (Pierce, Rockford, IL) and serum albumin standards.

[4] = tested on: mice lacking OX2 receptors; test: DRL 36-s schedule of reinforcement in OX2 KO mice; format: in vivo, mouse; conditions: for Lever Presses Mean / Reinforcers Mean: OX2 KO mice DRL-36-s, raw data
Excerpt: as §1, §2, §3, §4, §5

[5] = tested on: Sprague–Dawley rats; test: DRL 72-s schedule of reinforcement in rats; format: in vivo, rat; conditions: for Lever Presses Mean / Reinforcers Mean: HSD rats DRL-72-s, raw data
Excerpt: Each chamber was enclosed in a melamine sound-attenuating cubicle. A white noise generator provided masking noise. The interior of each chamber consisted of three levers mounted on one wall with a house light mounted on the opposite wall. The house light was turned on at initiation of each test session and was turned off at the termination of each session. A water access port was situated next to the lever in the middle of the wall, wherein a reinforced response caused a clicker apparatus to sound paired with a dipper (0.02-ml cup) to be lifted from a water trough to an opening in the floor of the access port for 4 s.
Rats were initially trained under an alternative fixed ratio 1 water reinforcement schedule with a fixed 1-min time schedule for automatic reinforcement. Thus, each response was reinforced, with water also provided every minute in the absence of a response. […] Following acquisition of lever-pressing behavior, rats were trained daily on DRL 18-s sessions for ~2 weeks, following which they were advanced to DRL 72-s sessions. Responding on these sessions became stable after ~8 weeks. Experimental test sessions lasted for 1 h and were conducted 5 days/week during light hours.
as §4, §5

[6] = mice lacking OX1 receptors, 100 mg/kg
[7] = dose 100 mg/kg, listed as almorexant inactive
[8] = dose 100 mg/kg PO, listed as almorexant inactive, 100 mg/kg
[9] = C57Bl/6 mice DRL-36-s, significant at 100 mg/kg (Figure 5B legend)

CNC(=O)[C@@H](c1ccccc1)N1CCc2cc(OC)c(OC)cc2[C@@H]1CCc1ccc(C(F)(F)F)cc1 [Almorexant (R)]
Lever Presses Mean ([1]; dose 100 mg/kg): 103.75
Reinforcers Mean ([1]; dose 100 mg/kg): 28.88
Lever pressing, effect in words [1, 6]: significant decrease
Reinforcers received, effect in words [1, 6]: significant increases
Effect on DRL behavior, in words ([2]; C57Bl/6 mice DRL-36-s, 100 mg/kg): no significant effects on behavior
Lever Presses Mean [2, 7]: 233.00
Reinforcers Mean [2, 7]: 11.00
Receptor binding affinity, Ki OX2 ([3]; HEK293 membranes, [125I]-orexin A, 90 min, mean ± s.e.m. (n)): inactive
Ki ([3]; read-out: Receptor binding affinity, Ki OX2, HEK293 membranes, [125I]-orexin A, 90 min, mean ± s.e.m. (n)): > 10000 nM
Lever Presses Mean [4, 7]: 112.88
Reinforcers Mean [4, 7]: 25.13
Reinforcers received, effect in words ([4]; mice lacking OX2 receptors, 100 mg/kg): did not significantly affect
Lever presses emitted ([4]; mice lacking OX2 receptors, DRL-36-s, 100 mg/kg): 65 % of control
Lever Presses Mean [5, 8]: 64.73
Reinforcers Mean [5, 8]: 15.27
Effect on DRL behavior, in words ([5]; rats DRL-72-s, 100 mg/kg): no effect on behavior

CNC(=O)[C@@H](c1ccccc1)N1CCc2cc(OC)c(OC)cc2[C@@H]1CCc1ccc(C(F)(F)F)cc1 [Almorexant (S)]
Lever Presses Mean ([1]; dose 10 mg/kg): 111.38
Reinforcers Mean ([1]; dose 10 mg/kg): 33.00
Lever Presses Mean ([1]; dose 20 mg/kg): 124.75
Reinforcers Mean ([1]; dose 20 mg/kg): 30.50
Lever Presses Mean ([1]; dose 40 mg/kg): 108.25
Reinforcers Mean ([1]; dose 40 mg/kg): 34.63
Lever Presses Mean ([1]; dose 60 mg/kg): 110.13
Reinforcers Mean ([1]; dose 60 mg/kg): 29.13
Lever presses emitted, effect in words ([1]; mice lacking OX1 receptors, all doses 10–60 mg/kg): reduced the number of lever presses emitted
Reinforcers received, effect in words ([1]; mice lacking OX1 receptors, at 10 and 40 mg/kg): significant increase
Lever presses emitted [2, 9]: 47 % of control
Reinforcers received [2, 9]: > 400 % of control
Lever Presses Mean ([2]; dose 10 mg/kg): 174.25
Reinforcers Mean ([2]; dose 10 mg/kg): 14.00
Lever Presses Mean ([2]; dose 20 mg/kg): 161.13
Reinforcers Mean ([2]; dose 20 mg/kg): 15.50
Lever Presses Mean ([2]; dose 40 mg/kg): 172.38
Reinforcers Mean ([2]; dose 40 mg/kg): 20.25
Lever Presses Mean ([2]; dose 100 mg/kg): 114.88
Reinforcers Mean ([2]; dose 100 mg/kg): 27.13
Ki [3]: 6.9 ± 0.18 nM
Lever Presses Mean ([4]; dose 20 mg/kg): 162.63
Reinforcers Mean ([4]; dose 20 mg/kg): 28.75
Lever Presses Mean ([4]; dose 40 mg/kg): 179.25
Reinforcers Mean ([4]; dose 40 mg/kg): 20.50
Lever Presses Mean ([4]; dose 100 mg/kg): 158.13
Reinforcers Mean ([4]; dose 100 mg/kg): 24.75
Antidepressant-like effect in DRL, in words ([4]; mice lacking OX2 receptors, up to 100 mg/kg): completely abolished
Lever Presses Mean ([5]; dose 30 mg/kg PO): 42.73
Reinforcers Mean ([5]; dose 30 mg/kg PO): 13.55
Lever Presses Mean ([5]; dose 60 mg/kg PO): 51.91
Reinforcers Mean ([5]; dose 60 mg/kg PO): 17.91
Lever Presses Mean ([5]; dose 100 mg/kg PO): 45.09
Reinforcers Mean ([5]; dose 100 mg/kg PO): 19.55
Reduction in lever presses emitted, in words ([5]; rats DRL-72-s, PO, 30–100 mg/kg): did not reach statistical significance
Reinforcers received, effect in words ([5]; rats DRL-72-s, PO, significant at 100 mg/kg (Figure 5A legend)): significant increase
Doses with antidepressant-like efficacy in the rat DRL-72 sec model ([5]; reduced lever presses with increased reinforcers): 100 mg/kg
